We go through three molecules from EP2932958A1, “COSMETIC AND PHARMACEUTICAL APPLICATIONS OF N-ACETYLHYDROXYPROLINE” (Beiersdorf AG, priority 2007, dated 2008).

SMILES strings stand for the structures.

For test [1], the target named is T1, BSA (Bos taurus, UniProt P02769). Kind of test: Inhibition of CML glycation of BSA with DHA, dot-blot (part B). Format: biochemical, Bovine. The settings on record: BSA 1%, DHA 1%, 1 day at 50°C; series I 0.17 % and II 9.82 mM of inhibitor. Here is the method: Samples (A-F) were incubated for 1 day at 50°C and analysed for CML-content using the dot-blot approach set forth above in A. The dot-blot results are shown in Figure 11.
(§1) The samples had the following composition: • A: only BSA (1%) • B: BSA (1%) with DHA (1%) • C: BSA (1%) with Hydroxyproline and DHA (1 %) • D: BSA (1%) with N-Acetylhydroxyproline (NAHP) and DHA (1%) • E: BSA (1%) with Proline and DHA (1%) • F: BSA (1%) with Acetylproline and DHA (1%)
(§2) Each sample (A-F) was tested twice (I+II) with the difference that I. was conducted with 0.17 % of each inhibitor (Proline, Hydroxyproline, Acetylproline or NAHP) and II. was conducted with 9.82 mM of each inhibitor.
The intensity of each dot was quantified. The results are represented in Figure 12.

The test system of test [2] is Primary human fibroblasts. The experiment in a line: CML formation in fibroblasts after glyoxal treatment (FACS, immunoblot, immunoprecipitation). As to conditions: 200 µM glyoxal for 7 days. The test is classed as cell-based. The procedure:
To test the effect of CML-modifications on vimentin function cells were treated with glyoxal to induce CML-vimentin modifications in fibroblasts. Primary human fibroblasts were incubated with 200 µM glyoxal for 7 days to enhance CML formation^18,20,28. […] The higher rate of CML-vimentin formation leads to a predominant modification of vimentin in the linker region of the molecule.
Proteins from cell extracts (20 µg per lane) were separated by gel electrophoresis under denaturing conditions on 10% SDS-PAGE gels. Immunoblotting was performed following standard procedures using chemiluminescence methods. […] Signals were quantified using LumiAnalyst (Boehringer Mannheim, Germany). […]
Fibroblasts were incubated for 7 days with 200 µM glyoxal^18,20. […] After 3 washing steps with PBS the fluorescence was measured using FACSCanto (BD Biosciences, San Jose, USA) and analysed by the software BD FACSDiva 4.0.
Human fibroblasts were incubated for 7 days with 200 µM glyoxal^18,20 and tested for CML formation using FACS analysis as described above (a). Quantitative analysis of (a) is shown in panel (b, right columns) together with quantitative analysis of dot-blots as described in the legend to Fig.4 and the Methods section (b, left columns). […] Additionally, the two cell populations were lysed, vimentin was immunoprecipitated and analysed for CML-modification by SDS-page and immunoblotting. […]

Test [3] has as its system human fibroblasts. The experiment in a line: Vimentin redistribution to a perinuclear aggregate after glyoxal treatment (immunofluorescence microscopy). The test is classed as cell-based. Here is the method: To determine whether the loss of contractile capacity is the result of a CML-induced redistribution of vimentin, immunofluorescence microscopic analysis of fibroblasts with and without glyoxal treatment were employed. […] About 90% of the fibroblasts were affected after incubation for 7 days.
For immunostaining, cells were fixed in 3% paraformaldehyde for 30 minutes at room temperature, washed with PBS and permeabilized with 0.5% Triton X-100 for 5 minutes; after which the cells were blocked with 3% BSA for 30 minutes. Cells were then incubated with primary antibody in 1% BSA for 1 hour. […] Cells were then incubated for 1 hour with 1% BSA solution containing fluorescence-labelled secondary antibodies (AlexaFluor 488 chicken-anti-mouse IgG, AlexaFluor 594 donkey-anti-goat IgG, AlexaFluor 546 donkey-anti-goat IgG, Molecular Probes, Eugene, Oregon) at 1:1,000 to visualise the target protein and DAPI (Molecular Probes, Eugene, Oregon). After extensive washing with PBS fluorescence images were recorded on a fluorescence microscope (Olympus, Hamburg, Germany) with an attached […] camera. Confocal fluorescence images were recorded on LSM 510 Meta (Carl Zeiss, Jena, Germany). […]

Test [4] deals with human fibroblasts. Kind of test: Contraction capacity of fibroblasts in 3D free-floating collagen lattices. The test is classed as cell-based. The settings on record: glyoxal treated vs control fibroblasts, n=10, p=0.00056. Here is the method: Further, normal fibroblasts were compared with fibroblasts with a higher CML-vimentin modification with respect to contractile capacities. The contractile capacity was determined using 3D free-floating collagen lattices^29,30.
100 mg Type I collagen (Sigma, St. Louis, USA) was dissolved at 4°C in 33.3 ml of 0.1% sterile acetic acid. 0.9 ml of 10x Hank's Buffer Salt Solution (Biochrom, Berlin, Germany) was added to 4.5 ml of this solution of collagen. 1.9 ml of 0.1% acetic acid was supplemented. NaOH was added dropwise to neutralise the solution. 1.5 x 10^5 fibroblasts were resuspended in 0.1 ml FCS and added to the solution for each ml of the gel. Casy Model TT (Schärfe System, Reutlingen, Germany) was used to count the fibroblasts and to control their viability. […] Diameters were measured at 0 hours and 24 hours. […]
Human fibroblasts were incubated for 7 days with 200 µM glyoxal^18,20 and tested for CML formation using FACS analysis as described above (a). Quantitative analysis of (a) is shown in panel (b, right columns) together with quantitative analysis of dot-blots as described in the legend to Fig.4 and the Methods section (b, left columns). […] Additionally, the two cell populations were lysed, vimentin was immunoprecipitated and analysed for CML-modification by SDS-page and immunoblotting. […] The contraction of these lattices was measured after 48h. […]

Test [5] deals with age spots (senile lentigo). Kind of test: Lightening effect on undesired skin pigmentation (age spots). Format: in vivo. The settings on record: after seven days. From the text: Undesired and uneven skin pigmentation such as, e.g., age spots (senile lentigo) are a major problem associated with the aging of skin and skin appendages. N-acetylhydroxyproline has an effect with respect to the lightening of age spots.

Test [6] concerns the target T1, BSA. The experiment in a line: Inhibition of BSA-CML formation with glucose, dot-blot with CML-specific antibody (part A). As to conditions: BSA 1.035 %, glucose 1 M, 7 days at 50°C, various amounts of NAHP. The test is classed as biochemical, Bovine. The procedure:
BSA samples of were incubated with glucose for 7 days at 50°C in the presence of various amounts of NAHP and thereafter analysed for their CML-content using a dot-blot approach. An antibody which is specific for the CML modifications of immobilised proteins (in this case BSA) on a nitrocellulose membrane was used to make the CML modifications visible. […] The stronger the intensity of each dot in the above series, the higher is the concentration of CML-modifications on the BSA. The control consists of BSA without glycation agent (glucose). Each single dot was quantified for its intensity leading to the results which are shown diagrammatically in Figure 10.
The concentration of BSA was 1.035 % (10.35 mg/ml) and the concentration of glucose in each sample was 1 M.

For test [7], the target named is T1, BSA. The experiment in a line: AGE-fluorescence of BSA incubated with DHA (part B, samples II). Format: biochemical, Bovine. The settings on record: BSA 1%, DHA 1%. The procedure:
as §1, §2
Samples A-F (II) were further tested regarding the inhibition of the formation of other AGEs (different from CML). To this end, the AGE-fluorescence at λex=370 nm and λem= 440 nm was measured. The wavelengths used are those proposed by Bellmunt et al., Lung 173 (1995), 177-85 and used by many laboratories.

Test [8] concerns the target T1, BSA. The experiment in a line: BSA-Glucose Assay of AGE formation at pH 5 and pH 7 (part F). Format: biochemical, Bovine. The settings on record: BSA with glucose, 7 days at 50°C. The procedure:
As acetylated compounds result in a decrease in the pH, the effect of NAHP was compared at two different pH values (pH 5 and pH 7). As described in Section A, the BSA-Glucose Assay was used. To stabilize the pH the adjustment was performed after the addition of the inhibitor.
After incubation of BSA with glucose for 7 days at 50°C a significant increase in AGE fluorescence is detectable. An acidic environment (pH 5) results in a much less intensive AGE-formation in the BSA-Glucose Assay than a neutral, environment (pH 7).

T1 sequence (P02769 25-607): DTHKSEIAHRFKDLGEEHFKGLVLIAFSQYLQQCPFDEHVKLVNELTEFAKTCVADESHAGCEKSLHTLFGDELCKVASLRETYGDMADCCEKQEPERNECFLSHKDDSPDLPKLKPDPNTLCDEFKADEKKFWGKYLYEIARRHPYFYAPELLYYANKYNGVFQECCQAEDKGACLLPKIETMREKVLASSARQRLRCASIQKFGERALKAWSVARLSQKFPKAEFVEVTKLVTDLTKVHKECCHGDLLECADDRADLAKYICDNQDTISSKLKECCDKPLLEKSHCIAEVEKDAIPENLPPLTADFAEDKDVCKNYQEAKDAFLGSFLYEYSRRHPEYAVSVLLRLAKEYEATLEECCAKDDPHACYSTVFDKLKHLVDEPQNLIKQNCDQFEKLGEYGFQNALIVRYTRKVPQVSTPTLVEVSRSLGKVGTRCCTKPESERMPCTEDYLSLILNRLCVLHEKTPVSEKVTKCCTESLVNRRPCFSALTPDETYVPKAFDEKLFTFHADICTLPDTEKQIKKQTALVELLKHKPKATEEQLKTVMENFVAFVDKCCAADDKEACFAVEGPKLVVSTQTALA

As to `CC(=O)N1CCC[C@H]1C(=O)O` [Acetylproline, reference compound], the “inhibitory effect on the CML-glycation of BSA (dot-blot intensity)” value against BSA [1] is given as “potent inhibitor of the CML-glycation, but to a lesser extent than NAHP”.
For `O=CC=O` [glyoxal], the “CML as measured by FACS and immunoblot analysis” value in test [2] is “massive increase of CML”. Besides, the “fibroblasts showing perinuclear vimentin aggregate formation” value in the test with human fibroblasts [3] (200 µM glyoxal for 2 days) is listed as “About 70%”. Moreover, the “fibroblasts affected by vimentin aggregate formation” value in the test with human fibroblasts [3] (200 µM glyoxal, incubation for 7 days) was “About 90%”. Further, in the test with human fibroblasts [4], the “contractile capacity of fibroblasts in 3D collagen lattices” value is on record as “significantly reduced”.
On to `CC(=O)N1C[C@H](O)C[C@H]1C(=O)O` [NAHP, N-acetylhydroxyproline], for which the “brightness of the treated age spot” value in test [5] is on record as “increase in brightness”. Moreover, at BSA [6], the “CML glycation of BSA (dot-blot intensity)” value was “protective effect on BSA, preventing the CML glycation of this protein”. Moreover, the “inhibitory effect on the CML-glycation of BSA (dot-blot intensity)” value against BSA [1] was “strongest inhibitory effect”. For the same molecule, the “formation of fluorescent AGEs (AGE-fluorescence at λex=370 nm and λem= 440 nm)” value at BSA [7] (9.82 mM inhibitor (samples II)) was “inhibited”. Further, the “brownish color of AGEs in the solution” value on BSA [7] (samples II, digital picture) is “absent”. In addition, the “AGE-formation (AGE fluorescence) at pH 5” value on BSA [8] (pH 5) was “reduced AGE-formation”. In addition, at BSA [8] (pH 7), the “AGE-formation (AGE fluorescence) at pH 7” value is reported as “reduced AGE-formation”.
